In ChEMBL document CHEMBL4428109, “Structure-activity relationship studies of non-carboxylic acid peroxisome proliferator-activated receptor α/δ (PPARα/δ) dual agonists” (Bioorg Med Chem, 2016):
Calls of active or inactive are those of the source. The rule behind the calls is not given here.

Tests used:
[1] = molecular target: T1, Retinoic acid receptor RXR-alpha (Homo sapiens) (UniProt P19793); test: Agonist activity at RXRalpha (unknown origin) at < 20 uM
T1 sequence (whole entry): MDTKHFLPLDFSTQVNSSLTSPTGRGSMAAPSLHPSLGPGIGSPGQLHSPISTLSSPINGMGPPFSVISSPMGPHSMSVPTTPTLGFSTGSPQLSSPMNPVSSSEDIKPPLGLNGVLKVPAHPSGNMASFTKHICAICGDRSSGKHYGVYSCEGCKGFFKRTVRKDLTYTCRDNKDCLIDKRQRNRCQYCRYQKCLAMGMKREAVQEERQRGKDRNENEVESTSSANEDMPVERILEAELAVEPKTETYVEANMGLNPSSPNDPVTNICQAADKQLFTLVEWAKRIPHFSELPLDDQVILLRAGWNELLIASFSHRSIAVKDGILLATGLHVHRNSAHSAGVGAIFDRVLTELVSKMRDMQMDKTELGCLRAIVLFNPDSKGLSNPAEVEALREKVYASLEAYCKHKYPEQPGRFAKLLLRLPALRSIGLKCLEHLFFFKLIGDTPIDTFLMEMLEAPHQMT

[2] = molecular target: T2, Retinoic acid receptor RXR-beta (Homo sapiens) (UniProt P28702); test: Agonist activity at RXRbeta (unknown origin) at < 20 uM
T2 sequence (whole entry): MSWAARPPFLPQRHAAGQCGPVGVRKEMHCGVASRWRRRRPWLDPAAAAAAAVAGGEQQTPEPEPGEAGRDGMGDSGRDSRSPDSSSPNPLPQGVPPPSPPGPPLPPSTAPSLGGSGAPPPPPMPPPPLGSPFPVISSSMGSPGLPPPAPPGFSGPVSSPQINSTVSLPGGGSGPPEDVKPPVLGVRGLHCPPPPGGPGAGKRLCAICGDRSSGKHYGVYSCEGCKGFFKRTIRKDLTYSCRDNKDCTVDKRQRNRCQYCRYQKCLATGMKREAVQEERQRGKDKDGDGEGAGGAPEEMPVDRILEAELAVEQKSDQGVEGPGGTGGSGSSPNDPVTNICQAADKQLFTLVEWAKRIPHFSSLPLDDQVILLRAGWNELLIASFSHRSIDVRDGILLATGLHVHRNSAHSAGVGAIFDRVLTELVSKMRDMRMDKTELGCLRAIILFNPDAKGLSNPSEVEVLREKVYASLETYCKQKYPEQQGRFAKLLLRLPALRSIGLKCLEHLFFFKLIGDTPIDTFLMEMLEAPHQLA

[3] = molecular target: T3, Oxysterols receptor LXR-beta (Homo sapiens) (UniProt P55055); test: Agonist activity at LXRbeta (unknown origin) at < 20 uM
T3 sequence (whole entry): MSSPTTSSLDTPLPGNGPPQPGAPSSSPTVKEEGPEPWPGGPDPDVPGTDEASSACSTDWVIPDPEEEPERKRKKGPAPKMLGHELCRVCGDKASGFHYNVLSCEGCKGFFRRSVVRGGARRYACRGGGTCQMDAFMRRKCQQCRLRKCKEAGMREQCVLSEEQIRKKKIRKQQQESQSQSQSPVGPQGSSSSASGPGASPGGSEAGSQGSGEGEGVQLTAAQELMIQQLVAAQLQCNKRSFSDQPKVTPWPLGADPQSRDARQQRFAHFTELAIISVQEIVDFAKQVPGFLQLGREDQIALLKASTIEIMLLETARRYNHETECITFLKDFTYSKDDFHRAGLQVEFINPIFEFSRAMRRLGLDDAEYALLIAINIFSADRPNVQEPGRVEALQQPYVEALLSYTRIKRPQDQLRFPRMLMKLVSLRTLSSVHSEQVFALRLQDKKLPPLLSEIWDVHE

[4] = molecular target: T4, Peroxisome proliferator-activated receptor delta (Homo sapiens, UniProt Q03181); test: Agonist activity at N-terminal Gal4 fused human PPARdelta LBD transfected in HEK293 cells after 24 hrs by luciferase reporter gene assay; assay type: cell-based
T4 sequence (Q03181 whole entry): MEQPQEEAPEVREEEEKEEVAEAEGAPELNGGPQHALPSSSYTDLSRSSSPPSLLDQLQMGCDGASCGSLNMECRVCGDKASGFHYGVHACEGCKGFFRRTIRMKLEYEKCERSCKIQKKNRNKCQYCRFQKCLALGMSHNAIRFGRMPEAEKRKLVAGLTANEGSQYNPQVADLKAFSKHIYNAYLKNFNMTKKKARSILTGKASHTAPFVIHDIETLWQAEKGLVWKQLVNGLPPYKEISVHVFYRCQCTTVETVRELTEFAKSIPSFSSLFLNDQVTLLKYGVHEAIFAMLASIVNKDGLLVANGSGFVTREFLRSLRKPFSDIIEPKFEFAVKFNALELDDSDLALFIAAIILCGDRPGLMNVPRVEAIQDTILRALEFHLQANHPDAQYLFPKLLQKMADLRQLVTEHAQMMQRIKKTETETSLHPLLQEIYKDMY

[5] = molecular target: T5, Peroxisome proliferator-activated receptor gamma (Homo sapiens) (UniProt P37231); test: Agonist activity at N-terminal Gal4 fused human PPARgamma LBD transfected in HEK293 cells at < 10 uM after 24 hrs by luciferase reporter gene assay; assay type: cell-based
T5 sequence (whole entry): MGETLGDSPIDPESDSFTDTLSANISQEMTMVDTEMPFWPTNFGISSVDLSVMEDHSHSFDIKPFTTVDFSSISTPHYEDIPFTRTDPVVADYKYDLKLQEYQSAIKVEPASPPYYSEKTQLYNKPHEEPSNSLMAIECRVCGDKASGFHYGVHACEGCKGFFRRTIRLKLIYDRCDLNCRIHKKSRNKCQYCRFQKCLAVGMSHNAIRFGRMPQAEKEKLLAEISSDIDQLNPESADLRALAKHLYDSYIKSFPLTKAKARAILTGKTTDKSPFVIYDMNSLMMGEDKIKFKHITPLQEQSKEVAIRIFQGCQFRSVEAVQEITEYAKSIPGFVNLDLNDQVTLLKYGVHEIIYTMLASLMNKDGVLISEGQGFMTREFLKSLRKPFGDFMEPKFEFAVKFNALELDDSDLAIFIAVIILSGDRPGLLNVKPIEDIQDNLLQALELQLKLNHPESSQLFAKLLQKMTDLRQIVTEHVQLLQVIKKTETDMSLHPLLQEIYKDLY

CC(=O)NC(C)c1nc(-c2ccc(Oc3ccc(OCc4ccccc4)cc3)cc2)no1 (stereo not given)
Activity [1]: inactive | Activity [2]: inactive | Activity [3]: inactive | EC50 [4]: 46 nM | Activity [5]: inactive
